Reference: PMC8066102, “Metabolic Profiles of New Unsymmetrical Bisacridine Antitumor Agents in Electrochemical and Enzymatic Noncellular Systems and in Tumor Cells” (Pharmaceuticals, 2021)

Experiments:
HT-29 cells = assay: Drug metabolism and medium/cell extract distribution in HT-29 colon tumor cells; format: cell-based, human; settings: HT-29, 5 μM; for drug level in cell extract: 3-48 h; for metabolite formation in cells: post-culture media and cell extracts
Experimental: To analyze the transformation products of UAs in colon tumor cell lines, HCT-116 or HT-29 cells were plated in 60 mm Petri dishes; after reaching 80% of confluence, cells were treated with 5/25/50 μM of C-2028, C-2045 or C-2053 (prepared as 10 or 2 mM stock solutions in water) for specified time. Half of medium was added to acetonitrile (1:1, v/v), centrifuged (12 min, 13,400 rpm, 4 °C) and the supernatant was analyzed by HPLC (post-culture medium). Cells remaining on the Petri dishes were collected by gentle scraping, sedimented, washed with ice-cold PBS, suspended in ice-cold chloroform and lysed by sonication for 15 min. After 1 h on ice, insoluble material was removed by centrifugation at 13,000 rpm for 20 min at 4 °C. The sediment was discarded and supernatant (chloroform) were evaporated under pressure. Then, sample was suspended in ice-cold 60% methanol and directly analyzed by HPLC (cell extract).

P4502C19 = target: T1, P4502C19 (Homo sapiens, UniProt P33261); assay: Metabolism with human recombinant P4502C19; format: in vitro ADME; settings: 0.05 mM compound, 1 mg/mL P4502C19, 2 mM NADPH, 30 min
T1 construct: purchased Cypex, Dundee, Scotland, UK (through Tebu-Bio); host or cells: Escherichia coli (Bactosomes)
Experimental: UT-RLMs (2 mg/mL) and P450-RLMs induced with Dex, 3MC, or PB and recombinant P4502C19 and P4503A4 (1 mg/mL) were assayed for activity toward tested UAs as follows. The proteins were incubated in a buffer containing 0.1 M HEPES (pH 7.4), 2 mM MgCl2 with 0.05 mM substrate in total volume 70 µL. Substrates were added also in buffer HEPES, pH 7.4. Reactions were started by the addition of NADPH (2 mM) and were incubated for specified time at 37 °C. The reactions were stopped by the addition of 8.75 µL of 1 M HCl, followed by centrifugation at 13,400 rpm for 10 min to pellet the denatured protein. The supernatant fractions were used for high-performance liquid chromatography (HPLC) analysis. Control reactions omitting substrate were run with each assay. All incubations were performed in two repetitions.

UGT2B7 = target: T2, UGT2B7 (Homo sapiens, UniProt P16662); assay: Glucuronidation with recombinant UGT2B7; format: in vitro ADME; set-up: key: −: the lack of UGT activity; +: the significant UGT activity; settings: 0.05 mM compound, 1 mg/mL UGT, 5 mM UDPGA
T2 construct: purchased Corning, NY, USA (through DIAG-MED, Poland); host or cells: baculovirus-insect cells (Supersomes)
T2 sequence (P16662 24-529): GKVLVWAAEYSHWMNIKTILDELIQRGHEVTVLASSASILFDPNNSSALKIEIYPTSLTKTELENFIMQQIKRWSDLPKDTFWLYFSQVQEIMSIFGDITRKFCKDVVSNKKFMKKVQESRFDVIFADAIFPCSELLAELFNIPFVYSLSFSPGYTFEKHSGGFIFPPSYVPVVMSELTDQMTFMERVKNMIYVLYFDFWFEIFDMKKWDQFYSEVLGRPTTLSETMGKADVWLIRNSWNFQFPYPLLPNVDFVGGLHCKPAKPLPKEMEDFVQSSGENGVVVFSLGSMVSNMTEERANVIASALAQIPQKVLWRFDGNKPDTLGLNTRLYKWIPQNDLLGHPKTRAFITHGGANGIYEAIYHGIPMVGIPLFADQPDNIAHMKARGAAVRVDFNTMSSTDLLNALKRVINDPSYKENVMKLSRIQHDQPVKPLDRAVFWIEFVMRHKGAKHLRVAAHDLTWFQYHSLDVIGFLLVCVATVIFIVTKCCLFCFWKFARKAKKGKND
Experimental: Recombinant UGT isoform protein (1 mg/mL) was assayed for activity toward tested UAs as follows. The proteins were incubated in a buffer containing 0.1 M HEPES (pH 7.4), 8 mM MgCl2 and alamethicin (25 μg/mL) with either 0.05 mM substrate in total volume 70 µL (alamethicin was added to permeabilize the membrane). Substrates were also in buffer HEPES, pH 7.4. Reactions were started by the addition of UDPGA (5 mM) and were incubated for specified time at 37 °C. The reactions were stopped by the addition of 8.75 µL of 1 M HCl, followed by centrifugation at 13400 rpm for 10 min to pellet the denatured protein. The supernatant fractions were used for HPLC analysis. Control reactions omitting substrate were run with each assay. All incubations were performed in two repetitions.

P4503A4 = target: T3, P4503A4 (Homo sapiens, UniProt P08684); assay: Modulation of P4503A4 activity (testosterone β-hydroxylation); format: in vitro ADME; settings: for mechanism of P4503A4 inhibition: testosterone 0.02-0.2 mM, inhibitor 0-0.01 mM, nonlinear regression; for decrease in activity of P4503A4: testosterone β-hydroxylation, all concentrations (0.01, 0.02 and 0.05 mM), 30 min
T3 construct: purchased Cypex, Dundee, Scotland, UK (through Tebu-Bio); host or cells: Escherichia coli (Bactosomes)
Experimental: Isoenzyme activity was studied by the rate measurement of β-hydroxylation of testosterone (specific substrate for P4503A4) and of glucuronidation of specific substrates, namely, SN-38 (UGT1A1), EPI (UGT2B7),) and TFK (UGT2B15). All substrate and drug solutions were prepared as 10 mM stock solutions in DMSO and were diluted in […] (pH 7.4). The mixture containing isoenzymes P4503A4/UGT (0.5 mg/mL), probe substrate (0.1 mM), cofactor 2 mM NADPH/5 mM UDPGA and the increasing concentrations of tested UA (0, 0.01, 0.02 and 0.05 mM) was incubated in the reaction buffer containing (i) for P4503A4 0.1 M HEPES, 88 mM MgCl2 and (ii) for UGT 0.1 M HEPES, 88 mM MgCl2, 25 μg/mL alamethicin at 37 °C for 30 min and were terminated by adding 8.75 µL of 0.1 M HCl. The samples were placed in ice for 10 min and centrifuged (10 min, 13,400 rpm). Supernatant fractions were analyzed by HPLC. For more accurate investigation of P4503A4 inhibition by C-2045 and C-2053 the β-hydroxylation rate was measured at various concentrations of testosterone: 0.02, 0.05, 0.1 and 0.2 mM. The inhibitor (UA) concentrations were 0, 0.001, 0.005 and 0.01 mM, whereas the incubation time 30 min and concentration of P4503A4 (0.5 mg/mL).

T1 sequence (P33261 whole entry): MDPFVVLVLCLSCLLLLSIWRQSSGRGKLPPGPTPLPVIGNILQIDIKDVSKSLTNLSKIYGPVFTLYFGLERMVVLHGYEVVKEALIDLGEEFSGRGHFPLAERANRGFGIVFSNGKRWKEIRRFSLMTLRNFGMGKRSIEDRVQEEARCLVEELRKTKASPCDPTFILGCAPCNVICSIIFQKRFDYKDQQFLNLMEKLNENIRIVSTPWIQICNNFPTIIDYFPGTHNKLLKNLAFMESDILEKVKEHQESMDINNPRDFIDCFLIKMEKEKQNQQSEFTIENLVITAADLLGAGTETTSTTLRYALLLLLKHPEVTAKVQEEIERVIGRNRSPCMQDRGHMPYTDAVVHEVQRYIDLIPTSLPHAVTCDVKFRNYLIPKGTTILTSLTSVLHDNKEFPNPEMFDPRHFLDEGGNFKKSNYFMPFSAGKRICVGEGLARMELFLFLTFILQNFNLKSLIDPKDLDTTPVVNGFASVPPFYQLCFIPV
T3 sequence (P08684 whole entry): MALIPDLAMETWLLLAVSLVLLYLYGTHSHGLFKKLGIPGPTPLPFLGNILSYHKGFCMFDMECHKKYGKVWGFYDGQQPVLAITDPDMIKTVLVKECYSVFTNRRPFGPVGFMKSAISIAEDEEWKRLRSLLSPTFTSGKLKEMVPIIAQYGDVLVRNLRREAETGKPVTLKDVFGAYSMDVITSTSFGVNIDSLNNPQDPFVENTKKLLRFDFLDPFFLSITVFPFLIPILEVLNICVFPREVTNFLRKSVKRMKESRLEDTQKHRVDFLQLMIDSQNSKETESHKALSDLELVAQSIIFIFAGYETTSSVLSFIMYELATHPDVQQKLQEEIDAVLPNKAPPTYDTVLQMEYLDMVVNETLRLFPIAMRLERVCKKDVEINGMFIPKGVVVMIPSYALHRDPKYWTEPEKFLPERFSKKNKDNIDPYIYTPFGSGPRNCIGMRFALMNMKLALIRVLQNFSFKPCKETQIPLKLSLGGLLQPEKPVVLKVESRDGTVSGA

Row | substrate transformed (P4502C19) [%] | Glucuronidation potency UGT 2B7 (UGT2B7) | mechanism of P4503A4 inhibition (P4503A4) | decrease in activity of P4503A4 (P4503A4) | Structure (SMILES) | drug level in cell extract (HT-29 cells) | metabolite formation in cells (HT-29 cells)
1 | 59 | − |  |  | CN(CCCNc1c2ccccc2nc2cccc([N+](=O)[O-])c12)CCCNc1ccc2ncn3c4ccccc4c(=O)c1c23 [C-2028] | high up to 24 hours and diminished significantly after 48 hours | did not indicate the presence of metabolites
2 | 11 | − | non-competitive | over 90% | Cc1ccc([N+](=O)[O-])c2c(NCCCN(C)CCCNc3ccc4ncn5c6ccc(O)cc6c(=O)c3c45)c3ccccc3nc12 [C-2045] |  | 
3 | ~64 | − | competitive | above 50% | Cc1ccc([N+](=O)[O-])c2c(NCCCN(C)CCCNc3ccc4ncn5c6ccccc6c(=O)c3c45)c3ccccc3nc12 [C-2053] | extremely high level | did not indicate the presence of metabolites
